From a melting point compilation (Tetko et al.; mined from patent text by program, amines drawn as free bases though some values may be those of a salt) come the findings set out here.

Broadly, the melting point is the temperature, or range, at which the solid turns liquid. In the case of `COc1cc(C(C)=O)ccc1OCCCN1CCN(c2n[nH]c3cc(Cl)ccc23)CC1`, the melting point was in the range of 132 to 134 °C.

In turn, `COc1nc2cc(Cl)c(Cl)c(N(CC(=O)O)S(C)(=O)=O)c2nc1OC` gave a melting point of 203 to 206 °C.

In turn, `CC(C)(C)OC(=O)N1CCC(OCc2ccccc2)C1CC(=O)Cn1cnc2ccncc2c1=O` (stereo unspecified) came in with a melting point of 221 °C.

For the compound `COC(=O)Nc1nc(-c2ccccc2)c(-c2nc3ccccc3c(=O)n2-c2cccc(C)c2)s1`, the melting point was in the range of 268 to 269 °C.

In turn, `CCn1c(C(c2cccc(F)c2)c2cccc(F)c2)nc(-c2ccncc2)c1-c1ccc(Cl)cc1` showed a melting point of 184 to 186 °C.

Consider `O=C(NC[C@H]1CC[C@H](C(=O)O)CC1)OCc1ccccc1`, for which the melting point fell in the range of 114 to 116 °C.

`NC(=O)CNC(=O)c1cncc(-c2cccc3cc(Cc4cc(F)cc(Cl)c4)sc23)c1` displayed a melting point of 176 to 177 °C.

Compound `COc1cc(C(CCl)(OC)OC)ccc1OS(=O)(=O)c1ccccc1` displayed a melting point of 130 °C.

On to `CSc1ccc(C(=O)C(C#N)C(=O)C(C)(C)C)c(Cl)c1` (stereo unspecified), for which the melting point fell in the range of 97 to 99 °C.

Consider `Cc1oc2ccccc2c1C(=O)c1ccc(Cl)c(N)c1`, for which the melting point was 103 °C.

The compound `CCC(Oc1c(Br)cc(-c2ccc(-c3c(Cc4ccccc4)oc4ccccc34)cc2)cc1Br)C(=O)O` (stereo unspecified) gave a melting point of 79 to 80 °C.

Consider `Nc1cc(OCc2cccc(Cl)c2)c(C(=O)NC2CN3CCC2CC3)cc1Cl` (stereo unspecified), for which the melting point lay within 168 to 169 °C.

`C=CCc1cc2c(c(CC=C)c1O)N(CC=C)C(=O)CO2` displayed a melting point of 71 to 73 °C.

In the case of `CC(=O)OC1CSC(Oc2cc(Br)cnc2Cl)C(OC(C)=O)C1OC(C)=O` (stereo unspecified), the melting point lay within 143 to 147 °C.

On to `O=C(O)CN1C(=O)C2(COc3cc4c(cc32)CCO4)c2c(Cl)cccc21` (stereo unspecified), for which the melting point was 228 to 229 °C.

Compound `Cc1ccc(Cc2cnc(CCCSCc3cc(CN(C)C)ccn3)[nH]c2=O)cn1` displayed a melting point of 110 to 112 °C.

`N#Cc1ccc2c(c1)S(=O)c1ccc(F)cc1C=C2` (stereo unspecified) displayed a melting point of 240 to 243 °C.

In turn, `CC(=O)Nc1ccn(C2CCC(COC(C)=O)O2)c(=O)n1` (stereo unspecified) yielded a melting point of 210 to 211 °C.

Regarding `CN1CCC(OC2c3cccc(-c4ccc(F)cc4)c3CCn3cc(-c4ccccc4)nc32)CC1` (stereo unspecified), the melting point is 95 °C.

As to `O=C(Nc1ccc(F)cc1)c1nnc2ccccc2c1O`, the melting point is 280 to 284 °C.

For `C=Cc1ccc(C(C#N)C#N)cc1`, the melting point fell in the range of 40 to 42 °C.

For the compound `COC(=O)CCCc1ccc(NC(=O)[C@@H](Cc2ccc(OCc3ccccc3)cn2)NC(=O)OC(C)(C)C)cc1`, the melting point was in the range of 166 to 167 °C.

`O=C(O)CCC1(CCC(=O)O)CC(=O)c2ccc(OCCCOc3ccccc3)cc2O1` gave a melting point of 132 to 133 °C.

On to `CC(C)(C)C(NC(=O)c1ccc(Cl)cc1)Nc1c(Nc2cccnc2Cl)c(=O)c1=O` (stereo unspecified), for which the melting point is 259 to 261 °C.

Consider `COc1ccc(C(=O)c2ccc(OCc3nc(-c4ccccc4)oc3C)cc2)c(OC(C)(C)C(=O)O)c1`, for which the melting point was in the range of 175 to 177 °C.

`NS(=O)(=O)c1cc2cc(CCOCc3ccccc3)ccc2s1` gave a melting point of 136 to 138 °C.

Take `COc1cnc(OC)n2nc(N)nc12`: the melting point lay within 185 to 186 °C.

Turning to `N#CCn1nnc(N)n1`, the melting point is 105 to 106 °C.

The compound `COc1ccc(S(=O)(=O)Nc2c(Nc3ccccc3)ncnc2Nc2ccccc2)cc1` gave a melting point of 149 to 151 °C.

As to `CCCCCCCCCCCCC(=O)c1cn(CCCC(=O)O)c2ccccc12`, the melting point is 76 to 78 °C.

Compound `CCOC(=O)C[C@H]1O[C@H](c2ccc(OCc3ccccc3)cc2OC)c2cc(Cl)ccc2N(CC(C)(C)C)C1=O` (relative stereo) yielded a melting point of 130 to 131 °C.

Take `CCOC(=O)c1ccc(NCCCc2c(N(C(C)=O)C(C)=O)nc(NC(C)=O)[nH]c2=O)cc1`: the melting point was in the range of 197 to 198 °C.

For the compound `CSc1ccc(C(=O)c2cc(-c3cccnc3)c(N3CCOCC3)s2)cc1`, the melting point came out at 127 °C.

For `CC(=O)N1CCCC1n1nccc1-c1ccc(Oc2ccc(F)cc2)cc1` (stereo unspecified), the melting point fell in the range of 90 to 95 °C.

Compound `CCc1nc2c(Cl)ncnc2n1C(C1CC1)C1CC1` returned a melting point of 99 to 100 °C.

In turn, `CCOC(=O)C1C(C)=NC(N2CCCC2)=C(C(=O)OC(C)C)C1c1ccccc1C(F)(F)F` (stereo unspecified) yielded a melting point of 102 °C.

Compound `O=C(CC12CC3CC(CC(C3)C1)C2)Nc1ccc2cn[nH]c2c1` had a melting point of 245 °C.

`Cc1c2[nH]c(C(=O)O)cc(=O)c2cc2c(=O)cc(C(=O)O)[nH]c12`: the melting point is greater than 310 °C.

On to `O=C(CC12CC3CC(CC(C3)C1)C2)Nc1cccc2[nH]ccc12`, for which the melting point lay in the range of 211 to 213 °C.

`O=C(c1ccccc1)c1ccc(OCCCCCCBr)cc1` had a melting point of 47 to 49 °C.

Consider `CCOC(=O)NOC(=O)CCCCC(=O)ONC(=O)OCC`, for which the melting point turned out to be 60 °C.

On to `COC(=O)CSCc1cnc(OC)c([N+](=O)[O-])c1`, for which the melting point was in the range of 57 to 60 °C.

`OCc1ccccc1OCc1ncc2ccccc2n1`: the melting point was 92 to 96 °C.

Compound `COC(=O)c1cc(SCc2ccsc2)c(Oc2ccccc2)c(S(N)(=O)=O)c1` returned a melting point of 148 to 149 °C.

`Cc1nc(N)c2nc(-c3ccccc3)cc-2[nH]1` gave a melting point greater than 280 °C.

Regarding `COc1ccc(N2CCN(C)CC2)c2c1CC[C@H](NC(=O)c1ccc(N3CCOCC3)cc1)C2`, the melting point fell in the range of 229 to 232 °C.

Turning to `N=C(N)Nc1nc2c(s1)CCN(C(=O)c1ccc(NC(=O)c3ccccc3-c3ccccc3)cc1)c1ccccc1-2`, the melting point was greater than 250 °C.

`COC(=O)c1cc(Cl)c(NC(C)=O)cc1OC(C)=O` gave a melting point of 134 to 136 °C.

Turning to `N#CC=C1CCN(c2ccc(N3CC(CNC(=O)C4CCCN4)OC3=O)cc2F)CC1` (stereo unspecified), the melting point turned out to be 155 °C.

As to `O=C(Nc1cc(F)cc(F)c1)c1ccccn1`, the melting point fell in the range of 111 to 113 °C.

Consider `O=C(O)CCS(=O)(=O)CCCl`, for which the melting point was in the range of 138 to 139 °C.

`O=C(CCCCCNC(=O)C/C=C/c1ccccc1)NO`: the melting point was in the range of 127 to 128 °C.

On to `CC(=O)c1ccc(-c2ccc(F)cc2)c(F)c1`, for which the melting point was 80 to 82.5 °C.

For the compound `O=C(O)c1cc(C#Cc2ccccc2)c(C(=O)O)cc1C#Cc1ccccc1`, the melting point is greater than 360 °C.

As to `CN1CCC(c2c[nH]c3ccc(/C=C/C(N)=O)cc23)CC1`, the melting point is 82 to 83.5 °C.

The compound `CCn1c(=O)oc(=O)c2ccccc21` returned a melting point of 110 to 112 °C.

In turn, `COc1ccc(Oc2ccc(C(=O)CCC#N)cc2)cc1` returned a melting point of 88 °C.

Take `CC(C)(C)OC(=O)n1c([Si](C)(C)C)cc2cnccc21`: the melting point stood at 112 °C.

In turn, `COc1ccc(C(=O)Nc2ccc(F)c(F)c2)cc1Nc1cccc(C(F)(F)F)c1` came in with a melting point of 166 to 169 °C.

`O=C(CCl)Nc1cc(C(=O)NC(CO)CO)cc(C(=O)NC(CO)CO)c1`: the melting point lay within 222 to 224 °C.

Regarding `NS(=O)(=O)c1cccc(-c2noc(-c3cnn4c(C(F)(F)F)cc(-c5ccc(C(F)(F)F)c(OCC(F)(F)F)c5)nc34)n2)c1`, the melting point is 250 °C.

Consider `CC(C)(C)c1ccc2ncc(C(=O)NCc3ccc(Cl)cc3)c(O)c2c1`, for which the melting point was found to be 266 °C.

`COc1nc2cc(Cl)c(Cl)c(CSCc3ccccc3)c2nc1OC` registered a melting point of 121 to 122 °C.

In turn, `Cc1cc(-c2nnnn2C2CC2)ccc1N` yielded a melting point of 139 to 140 °C.

As for `CC(=O)Nc1ccsc1C(=O)c1ccccc1`, the melting point fell in the range of 93 to 95 °C.

The compound `CCOC(C)C(=O)c1cc(C(C)(C)C)c(O)c(C(C)(C)C)c1` (stereo unspecified) registered a melting point of 64 °C.

On to `CCCCOCCC(C)CCCC(C)(C)c1cc(O)c(C(C)(C)CCCC(C)CCOCCCC)cc1O` (stereo unspecified), for which the melting point lay in the range of 86 to 89 °C.

On to `COCCNC(=O)c1cccc(CN2C(=O)C3(COc4cc5c(cc43)CCO5)c3ccccc32)c1` (stereo unspecified), for which the melting point was in the range of 72 to 73 °C.

The compound `COC(=O)c1cc2ccc(OCCN(C)C(=O)OC(C)(C)C)cc2oc1=O` showed a melting point of 128 to 129 °C.

Consider `CCCCc1ncc(/C=C(\Cc2cccs2)C(=O)O)n1Cc1ccc(C#N)cc1`, for which the melting point was in the range of 190 to 192 °C.

For the compound `CC[C@H](C)[C@@H](CO)NC(=O)[C@H](Cc1c[nH]cn1)NC(=O)[C@H](Cc1cccc2ccccc12)NC(=O)OCc1ccccc1`, the melting point fell in the range of 197 to 199 °C.

In turn, `CCN(CC)CCNc1nc2cccnc2n(-c2ccc(OC)cc2)c1=O` had a melting point of 167 to 168 °C.

`Nc1ccc(-c2nc(N3CCOCC3)c3sc(C(=O)NCC4CCN(c5ncc(C(=O)NO)cn5)CC4)cc3n2)cc1` yielded a melting point of 232 to 238 °C.

`C[C@@H]1CN(c2ccc3nc(-c4ccc(F)cc4)c(-c4ccnc5[nH]ccc45)n3n2)CCN1` gave a melting point of 285 to 287 °C.

Compound `Oc1cc2c(cc1CNc1ccccc1)OCC2` registered a melting point of 130 to 131 °C.

The compound `CONC(=O)Nc1cc(C(C)(C)C)on1` had a melting point of 145 to 148 °C.

Regarding `COC(=O)CCc1cc(C(=O)c2cccc(C#N)c2)ccc1OCCCCC=Cc1ccc(OC)cc1`, the melting point lay in the range of 65 to 67 °C.

The compound `CS(=O)(=O)c1cccc(/C=C/C2=CCN(Cc3ccccc3)CC2)c1` yielded a melting point of 150 to 152 °C.

`COC(OC)C1CN=C(c2cc3cccc(NS(=O)(=O)c4ccccn4)c3[nH]2)S1` (stereo unspecified) had a melting point of 153 °C.

As to `COCCOc1ccc(CCCNS(=O)(=O)c2ccc(Cl)cc2)c(Oc2ncc(C(F)(F)F)cc2Cl)c1`, the melting point was in the range of 111 to 113 °C.

As to `COC(C)(OC)c1nn(-c2c(Cl)cc(C(F)(F)F)cc2Cl)c(N)c1SC`, the melting point was found to be 149 °C.

`CCOC(=O)C1=C(C)NC(=S)N(C(=O)OC(C)C)C1c1cccc(Cl)c1Cl` (stereo unspecified) registered a melting point of 157 to 159 °C.

As for `CCc1nc(OC)c(NC(=O)N2CCN(c3cccc(O)c3)CC2)cc1C`, the melting point lay within 168 to 170 °C.

Compound `Cc1cc(N)n(C(CCc2ccccc2)=NO)n1` gave a melting point of 138 to 140 °C.

The compound `COc1cc(S(C)=O)ccc1-c1nc2ncc(O)cc2[nH]1` (stereo unspecified) showed a melting point of 220 to 223 °C.

`S=C(NCc1cccnc1)NC(=Nc1cccc2ccccc12)c1ccccc1` yielded a melting point of 153 to 154 °C.
